Data reported in publication PMC2913105 (British Journal of Pharmacology, 2010).

Key:
[1] = test system: P2Y receptors; assay: Ca2+ signals; assay type: cell-based, rat; settings: for Δ[Ca2+]i Peak: peak increase in [Ca2+]i, populations of cultured ASMC; for pEC50 Peak (with Ca2+): peak response in HBS; for pEC50 Ca2+ entry: sustained Ca2+ entry signal; for Δ[Ca2+]i Sustained: sustained increase measured between 250 and 300 s, cultured ASMC; for pEC50 Peak (Ca2+-free): peak response in Ca2+-free HBS
[2] = test system: Gi/o; assay type: cell-based, rat
[3] = ref Abbracchio et al., 2006; cited from earlier work
[4] = test system: phospholipase C; assay type: cell-based, rat
[5] = test system: P2X1 and P2X3 receptors; settings: not shown
[6] = biological target: T1, P2Y14 receptors (Rattus norvegicus, UniProt O35881); assay type: cell-based; settings: agonist 10 µM; not shown
T1 sequence (O35881 1-305): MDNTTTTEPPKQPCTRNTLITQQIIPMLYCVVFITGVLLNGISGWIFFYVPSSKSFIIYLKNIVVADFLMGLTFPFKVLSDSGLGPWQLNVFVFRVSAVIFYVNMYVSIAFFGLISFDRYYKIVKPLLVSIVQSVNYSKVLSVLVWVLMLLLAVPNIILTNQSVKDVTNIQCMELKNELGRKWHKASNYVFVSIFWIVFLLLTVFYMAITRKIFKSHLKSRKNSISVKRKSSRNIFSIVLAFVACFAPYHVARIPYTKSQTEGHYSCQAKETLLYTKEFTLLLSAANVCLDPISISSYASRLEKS

CSc1nc(N)c2ncn([C@@H]3O[C@H](COP(=O)(O)OP(=O)(O)O)[C@@H](O)[C@H]3O)c2n1 [2-MeSADP, 2-methylthio-adenosine-5′-diphosphate]
Δ[Ca2+]i Peak [1]: 122 ± 30 nM
pEC50 Peak (with Ca2+) [1]: 7.23 ± 0.53
pEC50 Ca2+ entry [1]: 5.58 ± 0.16
Δ[Ca2+]i Sustained [1]: 18 ± 4 nM

O=c1ccn([C@@H]2O[C@H](COP(=O)(O)OP(=O)(O)OP(=O)(O)O)[C@@H](O)[C@H]2O)c(=S)[nH]1 [2-thio-UTP, 2-thio-uridine-5′-triphosphate]
Δ[Ca2+]i Peak [1]: 327 ± 42 nM
pEC50 Peak (with Ca2+) [1]: 5.89 ± 0.29
Δ[Ca2+]i Sustained [1]: 88 ± 26 nM

N[C@@H]1[C@H](O)[C@@H](COP(=O)(O)OP(=O)(O)OP(=O)(O)O)O[C@H]1n1ccc(=O)[nH]c1=O [2′-amino-UTP, 2′-amino-2′-deoxyuridine-5′-triphosphate]
Δ[Ca2+]i Peak [1]: 301 ± 34 nM
pEC50 Peak (with Ca2+) [1]: 5.58 ± 0.37
pEC50 Ca2+ entry [1]: 5.40 ± 0.23
Δ[Ca2+]i Sustained [1]: 84 ± 36 nM

[N-]=[N+]=N[C@@H]1[C@H](O)[C@@H](COP(=O)(O)OP(=O)(O)OP(=O)(O)O)O[C@H]1n1ccc(=O)[nH]c1=O [2′-azido-UTP, 2′-azido-2′-deoxyuridine-5′-triphosphate]
Δ[Ca2+]i Peak [1]: 142 ± 29 nM
pEC50 Peak (with Ca2+) [1]: 4.67 ± 0.32
pEC50 Ca2+ entry [1]: 4.67 ± 0.06
Δ[Ca2+]i Sustained [1]: 55 ± 20 nM

Nc1ncnc2c1ncn2[C@@H]1O[C@H](COP(=O)(O)OP(=O)(O)OP(=O)(O)O)[C@@H](O)[C@H]1O [ATP]
Δ[Ca2+]i Peak [1]: 248 ± 48 nM
pEC50 Peak (Ca2+-free) [1]: 5.95 ± 0.10
pEC50 Peak (with Ca2+) [1]: 5.83 ± 0.03
pEC50 Ca2+ entry [1]: 5.01 ± 0.13
Δ[Ca2+]i Sustained [1]: 64 ± 20 nM
pEC50 of ATP, peak Ca2+ signal, after Pertussis toxin [2]: 5.30 ± 0.08
pEC50 of ATP, peak Ca2+ signal, without Pertussis toxin ([2]; paired control): 5.63 ± 0.09

CSc1nc(N)c2ncn([C@H]3[C@H](O)[C@H](O)[C@]4(COP(=O)(O)OP(=O)(O)O)C[C@H]34)c2n1 [MRS2365, (N)-methanocarba-2-MeSADP]
Δ[Ca2+]i Peak [1]: 154 ± 5 nM
pEC50 Peak (Ca2+-free) [1]: 8.56 ± 0.06
pEC50 Peak (with Ca2+) [1]: 8.68 ± 0.16
pEC50 Ca2+ entry [1]: 8.11 ± 0.32
Δ[Ca2+]i Sustained [1]: 18 ± 7 nM

S=C=Nc1cccc(NC(=S)NCCCCNC(=S)Nc2cccc(N=C=S)c2)c1 [MRS2578, N,N″-1,4-butanediylbis [N′-(3-isothiocyanatophenyl)thio] urea]
Solubility in aqueous solution [3]: sparingly soluble
Stability in aqueous solution [3]: unstable

COc1ccc2c(c1)CC[C@@H]1[C@@H]2CC[C@]2(C)[C@@H](NCCCCCCN3C(=O)C=CC3=O)CC[C@@H]12 [U73122, 1-[6-[[(17β)-3-methoxyestra-1,3,5 (10)-trien-17-yl]amino]hexyl]-1H-pyrrole-2,5-dione]
pIC50 for inhibition of Ca2+ signals evoked by ATP ([4]; ATP 100 µM, inhibitor added 5 min before and during stimulation): 5.78 ± 0.07
Effect on Ca2+ responses to UTP and UDP ([4]; not shown): abolished

COc1ccc2c(c1)CC[C@@H]1[C@@H]2CC[C@]2(C)[C@@H](NCCCCCCN3C(=O)CCC3=O)CC[C@@H]12 [U73343, 1-[6-[((17β)-3-methoxyestra-1,3,5 (10)-trien-17-yl)amino]hexyl]-2,5-pyrrolidinedione]
Effect on Ca2+ signals evoked by ATP ([4]; ATP 100 µM, inactive analogue of U73122): no effect

O=c1ccn([C@@H]2O[C@H](COP(=O)(O)OP(=O)(O)O)[C@@H](O)[C@H]2O)c(=O)[nH]1 [UDP]
Δ[Ca2+]i Peak [1]: 94 ± 20 nM
pEC50 Peak (Ca2+-free) [1]: 6.16 ± 0.43
pEC50 Peak (with Ca2+) [1]: 6.45 ± 0.45
pEC50 Ca2+ entry [1]: 6.83 ± 0.35
Δ[Ca2+]i Sustained [1]: 25 ± 6 nM

O=c1ccn([C@@H]2O[C@H](COP(=O)(O)OP(=O)(O)OP(=O)(O)O)[C@@H](O)[C@H]2O)c(=O)[nH]1 [UTP]
Δ[Ca2+]i Peak [1]: 254 ± 47 nM
pEC50 Peak (Ca2+-free) [1]: 5.39 ± 0.15
pEC50 Peak (with Ca2+) [1]: 5.23 ± 0.22
pEC50 Ca2+ entry [1]: 4.64 ± 0.32
Δ[Ca2+]i Sustained [1]: 67 ± 5 nM

Nc1ncnc2c1ncn2C1OC(COP(=O)(O)CP(=O)(O)OP(=O)(O)O)C(O)C1O (stereo not drawn) [αβ-meATP, αβ-methylene-adenosine-5′-triphosphate]
Ca2+ response in cultured ASMC [5]: no response

Pertussis toxin
Effect on responses to UDP ([2]; Pertussis toxin 100 ng·mL−1, 24 h): unaffected

diphosphoric acid 1-α-D-glucopyranosyl ester 2-[(4′-methylthio)uridin-5″-yl] ester [MRS2690]
Ca2+ signals evoked in cultured ASMC [6]: Neither MRS2690 (10 µM) nor UDP-glucose (10 µM) evoked Ca^2+ signals
